≈ marks a conversion by molar mass, not a printed value. Read-outs that look alike come from different tables or passages of the source.
How the values were obtained:
[1] = tested on: human normal embryonic kidney HEK-293 cells; experiment: MTT test on normal cells, HEK-293; assay type: cell-based; conditions: for IC50: Homo sapiens; for inhibitory effect on HEK-293 cells: at concentrations having 50% inhibitory effect on the tumor cells
Source text: (§1) A complete culture medium is used for diluting the above original solution into corresponding concentrations for later use.
(§2) Human cervical carcinoma Hela cells, human hepatoma BEL-7402 cells, mucinous Human epidermoid A549 lung cancer cells, human breast cancer MCF-7/S cells, human glioma U251 cells, and human normal embryonic kidney HEK-293 cells are purchased from USA, American Type Culture Collection (ATCC). All the tumor cells are used the DMEM medium (containing 10% FBS, 100 U/ml penicillin and 100 μg/ml streptomycin) for culturing and subculturing, and HEK-293 cells are using RPMI1640 medium (10% FBS, 100 U/ml penicillin, and 100 μg/ml streptomycin) for culturing and subculturing, wherein the culture condition is in a 5% CO2 incubator at 37° C.
Subculture six kinds of cells, which has a logarithmic growing period, adherent rate about 80%, and in good condition, such as human cervical carcinoma Hela cells, human hepatoma BEL-7402 cells, mucinous Human epidermoid A549 lung cancer cells, human breast cancer MCF-7/S cells, human glioma U251 cells, and human normal embryonic kidney HEK-293 cells. […] Repeat the above experiment three times to get an average value.
(§3) IR %=(1−ODsampale/ODcontrol)×100%

[2] = Source text: The 180 tumor-bearing mice are divided into 18 groups by the weigh of the mice, wherein each group has 10 mice (half male and half female). The drug delivery methods of each group are shown in Table 3 to illustrate eighteen groups of mice drug delivery situation.
Group 2 is the cyclophosphamide (CTX) group, and the mice of group 2 are only given the cyclophosphamide in the intraperitoneal of the mice on the second day of the tumor-bearing.
Group 3 to 18 groups are given the four compounds respectively, wherein the groups delivered 25 mg/kg drug are tail vein low-dose group, wherein the groups delivered 50 mg/kg drugs are the tail vein medium-dose group, wherein the groups delivered 100 mg/kg drugs are the tail vein high-dose group, wherein the groups delivered 200 mg/kg drugs are the oral enteral group. These mice from group 3 to 18 start the drug delivery on the second day of the tumor-bearing, and delivered once a day for 10 sequent days.
After the drug delivery, weight the mice weight, then execute the mice, and then weight the spleen and thymus weight by electronic weighting scale respectively. The spleen index and thymus index are the weight (mg) of mice spleen, thymus of each group/mice weight (g).

human glioma U251 cells = experiment: MTT anti-tumor test in vitro, U251; assay type: cell-based; conditions: Homo sapiens, U-251, 48 h
Source text: as §1, §2
Subculture six kinds of cells, which has a logarithmic growing period, adherent rate about 80%, and in good condition, such as human cervical carcinoma Hela cells, human hepatoma BEL-7402 cells, mucinous Human epidermoid A549 lung cancer cells, human breast cancer MCF-7/S cells, human glioma U251 cells, and human normal embryonic kidney HEK-293 cells. Discard the culture medium, rinse 1-2 times with PBS to remove serum, add 1 ml 0.25% Trypsin-0.01% EDTA (37° C. incubation) to digest for 1-2 minutes, add FBS culture medium to terminate the above digestion, centrifuge at a speed below 800 r/min for 2-3 minutes and discard the supernatant, re-suspended cells in 10% FBS medium, tack the cell suspension liquid for cell counting, adjust the density of the above liquid to 1×10^5/ml, then inoculate to a 96-holes plates (100 μl/hole), and then incubate in 5% CO2 incubator at 37° C. overnight. The next day add above cells to different concentrations of I-a, I-b, I-c and I-d, 100 μl/hole (its final concentration is respectively 30, 60, 120, 240, 480 μg/ml); meanwhile, set up the blank control group (0 μM), and establish 3 holes. Continuing the cultural process, discard the culture medium after 48 hours that the drug has been effected, add 100 μl PBS of 0.5 mg/ml MTT (PH 7.2) into each holes, after 4 hours culture, remove the culture medium by adherent cells express flipping method, add 100 μl of DMSO to each holes, oscillate it by micro-oscillation device for 5 minutes, and measure the OD value at 490 nm wavelength. Repeat the above experiment three times to get an average value. Calculate the inhibition rate (IR %) of the tumor cell proliferation in vitro from different concentrations of I-a, I-b, I-c, I-d by the following formula:
as §3
Use SPSS11.5 software to calculate the half inhibitory concentration IC50 of I-a, I-b, I-c and I-d. The results are shown in Table 2 to illustrate IC50 values (unit: μg/ml) of the four compounds.

[3] = HEK293, 48 h, HEK- (HEK-293), average of three experiments ± SD, MTT, 48 hours, read-out: IC50 value
[4] = HEK293, 48 h, HEK- (HEK-293), experiment 2, MTT, 48 hours, read-out: IC50 value
[5] = HEK293, 48 h, HEK- (HEK-293), experiment 3, MTT, 48 hours, read-out: IC50 value
[6] = HEK293, text, read-out: HEK-293 cells IC50 values
[7] = average of three experiments ± SD
[8] = HEK293, 48 h, HEK- (HEK-293), experiment 1, MTT, 48 hours, read-out: IC50 value

Structure (SMILES) | IC50 [1, 3] [µg/mL] | IC50 [1, 4] [µg/mL] | IC50 [1, 5] [µg/mL] | IC50 [1, 6] [µg/mL] | inhibitory effect on HEK-293 cells [1] | death during drug delivery ([2]; high-dose group, tail vein 100 mg/kg, 10 days) | splenomegaly of the tumor-bearing mice ([2]; mouse, in vivo) | IC50 (human glioma U251 cells; [7]) [µg/mL] | IC50 (human glioma U251 cells; experiment 2) [µg/mL] | IC50 (human glioma U251 cells; experiment 3) [µg/mL] | IC50 [1, 8] [µg/mL] | IC50 (human glioma U251 cells; experiment 1) [µg/mL] | effect near the tail vein of the mice and its surrounding tissue ([2]; mouse, in vivo)
COc1ccc(/C=C/C(=O)O)c(O)c1CC=C(C)C [I-a, (E)-2-hydroxy-4-methoxy-3-isopentenyl-cinnamic acid] | 404 ± 9.2 (≈ 1540 µM) | 399 (≈ 1520 µM) | 414 (≈ 1580 µM) | 404 ± 9.2 (≈ 1540 µM) | unobvious | does not have any death | no affect | 181 ± 7.98 (≈ 691 µM) | 173 (≈ 660 µM) | 180 (≈ 686 µM) |  |  | 
COc1ccc(/C=C\C(=O)O)c(OC)c1CC=C(C)C [I-b, (Z)-2,4-dimethoxy-3-isopentenyl-cinnamic acid] | 365 ± 6.14 (≈ 1320 µM) | 371 (≈ 1340 µM) | 366 (≈ 1320 µM) |  |  |  |  | 287 ± 9.58 (≈ 1040 µM) | 284 (≈ 1030 µM) | 298 (≈ 1080 µM) | 358 (≈ 1300 µM) | 277 (≈ 1000 µM) | 
COc1ccc(/C=C/C(=O)O)c(OC)c1CC=C(C)C [I-c, (E)-2,4-dimethoxy-3-isopentenyl-cinnamic acid] | 369 ± 13.6 (≈ 1340 µM) | 367 (≈ 1330 µM) | 356 (≈ 1290 µM) | 369 ± 13.6 (≈ 1340 µM) | unobvious |  | can cause the splenomegaly | 195 ± 7.31 (≈ 704 µM) | 192 (≈ 695 µM) | 188 (≈ 680 µM) | 383 (≈ 1390 µM) | 202 (≈ 731 µM) | irritation or corrosive

Source: patent US20110028758A1, “Trans-cinnamic acid derivative, its preparation mathod and the use” (priority 2007, published 2011)
